According to PubChem BioAssay (NCI):
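48-hour exposure; five concentrations; linearly interpolated endpoints. At the GI50, growth is halved. The concentration for full growth arrest is given as TGI.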

Experiments:
Test in all cases: inhibition of tumour cell growth, NCI panel, 48 h
786-0 renal = test system: 786-0 renal
A498 renal = test system: A498 renal
A549 NSCLC = test system: A549 NSCLC
ACHN renal = test system: ACHN renal
BT-549 breast = test system: BT-549 breast
CAKI-1 renal = test system: CAKI-1 renal
CCRF-CEM leukemia = test system: CCRF-CEM leukemia
COLO 205 colon = test system: COLO 205 colon
DU-145 prostate = test system: DU-145 prostate
HCC-2998 colon = test system: HCC-2998 colon
HCT-116 colon = test system: HCT-116 colon
HCT-15 colon = test system: HCT-15 colon
HL-60(TB) leukemia = test system: HL-60(TB) leukemia
HOP-62 NSCLC = test system: HOP-62 NSCLC
HOP-92 NSCLC = test system: HOP-92 NSCLC
HS 578T breast = test system: HS 578T breast
HT29 colon = test system: HT29 colon
IGROV1 ovarian = test system: IGROV1 ovarian
K-562 leukemia = test system: K-562 leukemia
KM12 colon = test system: KM12 colon
LOX IMVI melanoma = test system: LOX IMVI melanoma
MALME-3M melanoma = test system: MALME-3M melanoma
MCF7 breast = test system: MCF7 breast
MDA-MB-231 breast = test system: MDA-MB-231 breast
MDA-MB-435 = test system: MDA-MB-435
MOLT-4 leukemia = test system: MOLT-4 leukemia
NCI-H226 lung = test system: NCI-H226 lung
NCI-H23 lung = test system: NCI-H23 lung

COc1ccc(CN2CCCC(C(=O)c3ccc(C(F)(F)F)cc3)C2)c(O)c1 (stereo unspecified)
GI50 (786-0 renal): 17.3 µM
TGI (786-0 renal): 40.4 µM
GI50 (A498 renal): 0.0189 µM
TGI (A498 renal): 33.1 µM
GI50 (A549 NSCLC): 36.4 µM
TGI (A549 NSCLC): > 100 µM
GI50 (ACHN renal): 33.6 µM
TGI (ACHN renal): > 100 µM
GI50 (BT-549 breast): 24.3 µM
TGI (BT-549 breast): 71.9 µM
GI50 (CAKI-1 renal): 22.1 µM
TGI (CAKI-1 renal): > 100 µM
GI50 (CCRF-CEM leukemia): 35.2 µM
TGI (CCRF-CEM leukemia): > 100 µM
GI50 (COLO 205 colon): 19.3 µM
TGI (COLO 205 colon): 36.7 µM
GI50 (DU-145 prostate): 53.9 µM
TGI (DU-145 prostate): > 100 µM
GI50 (HCC-2998 colon): 24 µM
TGI (HCC-2998 colon): 56.3 µM
GI50 (HCT-116 colon): 21.2 µM
TGI (HCT-116 colon): > 100 µM
GI50 (HCT-15 colon): 14.6 µM
TGI (HCT-15 colon): 36 µM
GI50 (HL-60(TB) leukemia): 24.9 µM
TGI (HL-60(TB) leukemia): 62 µM
GI50 (HOP-62 NSCLC): 29.1 µM
TGI (HOP-62 NSCLC): > 100 µM
GI50 (HOP-92 NSCLC): 11.1 µM
TGI (HOP-92 NSCLC): 58 µM
GI50 (HS 578T breast): 24.7 µM
TGI (HS 578T breast): > 100 µM
GI50 (HT29 colon): 14.4 µM
TGI (HT29 colon): 33.9 µM
GI50 (IGROV1 ovarian): 52.6 µM
TGI (IGROV1 ovarian): > 100 µM
GI50 (K-562 leukemia): 19.3 µM
TGI (K-562 leukemia): 93.3 µM
GI50 (KM12 colon): 30.5 µM
TGI (KM12 colon): 86 µM
GI50 (LOX IMVI melanoma): 18.4 µM
TGI (LOX IMVI melanoma): 35.3 µM
GI50 (MALME-3M melanoma): 18.2 µM
TGI (MALME-3M melanoma): 35.5 µM
GI50 (MCF7 breast): 18 µM
TGI (MCF7 breast): 54.7 µM
GI50 (MDA-MB-231 breast): 13.6 µM
TGI (MDA-MB-231 breast): 32 µM
GI50 (MDA-MB-435): 23.4 µM
TGI (MDA-MB-435): 83.3 µM
GI50 (MOLT-4 leukemia): 27.5 µM
TGI (MOLT-4 leukemia): > 100 µM
GI50 (NCI-H226 lung): 35.5 µM
TGI (NCI-H226 lung): > 100 µM
GI50 (NCI-H23 lung): 28.5 µM
TGI (NCI-H23 lung): > 100 µM
